Measurements taken from patent US10611742B2, “4-oxo-4,5-dihydrothiazole derivative, preparation method and use thereof” (Institute of Pharmacology and Toxicology Academy of …, priority 2015, dated 2020).
pIC50: −log10 of the molar value.

How the values were obtained:
Format in all cases: cell-based
[1] = median toxic concentration on RD cell; details: human, RD cells; for CC50: read-out: TC50 (the source's name); for CC50 at 2 h: Table 2-2 (preventive effect), read-out: TC50
Procedure: (§1) 1. Virus strain: enterovirus EV71 (SZ-98 strain, provided by Chinese Center for Disease Control and Prevention), Vero cell (provided by the Cell Bank of Chinese Academy of Sciences), MRC-5 cell (provided by the Cell Bank of Chinese Academy of Sciences), and RD cell (provided by the Cell Bank of Chinese Academy of Sciences), were subjected to passage culture, respectively, and stored at −80° C.
(§2) 2. Sample treatment: a test sample (Compounds 1-14 and positive control agent) was dissolved in dimethyl sulfoxide (DMSO) to prepare a stock solution, which was stored at −20° C. The stock solution was diluted with DMEM medium (Gibco Company) containing 2% fetal bovine serum (Gibco Company) to prepare a 100 μM solution before use, and was 3-fold diluted with the medium to obtain 8 diluted concentrates.
(§3) 4. Test method: • 4.1 Therapeutic effect: the cells were seeded on a 96-well culture plate, and cultured in a 5% CO2, 37° C. incubator for 24 h. About 100 TCID50 enterovirus EV71 was added to each well. After adsorption at 37° C. for 1 h, the virus solution was discarded, and a drug was added at different diluted concentrates, respectively. Meanwhile, virus control and cell control were set, and cultured at 37° C. […] The virus-inhibition rate of a sample at each concentration was calculated based on the chemiluminescent value, the sample concentration was used as abscissa, and the inhibition rate was used as ordinate, and S-Curve fitting was performed by using Origin software. Half maximal inhibitory concentration (IC50) of each sample for enterovirus EV71 was calculated based on the fitting results. Median toxic concentration (TC50) was determined by the same method. […] To each well, a drug was added at a different diluted concentration, then the cells were cultured at 37° C. for 2 h, and then the drug was discarded. About 100 TCID50 enterovirus EV71 was added to each well, adsorbed at 37° C. for 1.5 h, then the virus solution was discarded, and a maintenance medium free of drug was added. Meanwhile, virus control and cell control were set, and cultured at 37° C. […] The virus-inhibition rate of a sample at each concentration was calculated, and half maximal inhibitory concentration (IC50), median toxic concentration (TC50), and selection index (SI) of each sample for enterovirus EV71 were calculated. The methods for determining and calculating them were as described in Item 4.1

[2] = median toxic concentration on MRC-5 cell; details: human, MRC-5 cells, Table 1-2 (therapeutic effect), read-out: TC50 (the source's name)
Procedure: as §1, §2, §3

[3] = system: enterovirus EV71 (SZ-98 strain); assay: anti-EV71 activity, therapeutic effect on RD cell (CPE inhibition, Celltiter Glo)
Procedure: (§4) Test principle: Vero cell, MRC-5 cell, and RD cell were used as host of virus, respectively, and samples were tested for their inhibition of cytopathic effect (CPE) caused by virus.
as §1, §2
(§5) 3. Positive control agent: Con1 (pitstop2) (purchased from AmyJet Scientific Inc., Abcam), a broad-spectrum antiviral inhibitor.
as §3

[4] = system: enterovirus EV71 (SZ-98 strain); assay: anti-EV71 activity, preventive effect on Vero cell (CPE inhibition)
Procedure: as §4, §1, §2, §5, §3

[5] = system: enterovirus EV71 (SZ-98 strain); assay: anti-EV71 activity, therapeutic effect on Vero cell (CPE inhibition, Celltiter Glo); details: EV71 (SZ-98 strain), therapeutic effect on Vero cell; read-out: IC50
Procedure: as §4, §1, §2, §5, §3

[6] = system: enterovirus EV71 (SZ-98 strain); assay: anti-EV71 activity, preventive effect on RD cell (CPE inhibition)
Procedure: as §4, §1, §2, §5, §3

[7] = system: enterovirus EV71 (SZ-98 strain); assay: anti-EV71 activity, therapeutic effect on MRC-5 cell (CPE inhibition, Celltiter Glo); details: MRC5
Procedure: as §4, §1, §2, §5, §3

[8] = median toxic concentration on Vero cell; details: African green monkey, Vero cells; for CC50: Table 1-1 (therapeutic effect), read-out: TC50 (the source's name); for CC50 at 2 h: Table 2-1 (preventive effect), read-out: TC50
Procedure: as §1, §2, §3

[9] = system: clathrin-mediated endocytosis of transferrin; assay: inhibition of clathrin-mediated endocytosis of transferrin in HeLa cells (fluorescence microscope); details: for inhibitory effect on endocytosis of transferrin (in words): 1.25 to 40 μmol/L; for inhibition at 20 µM: Homo sapiens, 20 μM compound, read-out: Inhibition rate
Procedure: 1. Experiment principle: transferrin was a key protein for clathrin-mediated endocytosis. Therefore, by determining the effect of a compound on transferrin in HeLa cell, the inhibitory effect of the compound on clathrin-mediated endocytosis could be evaluated. 2. Sample treatment: a test compound was dissolved in DMSO to prepare a stock solution, which was stored at −20° C. The stock solution was diluted with HEPES buffer (25 mm HEPES, 20 mm Glucose, 1% BSA, sterile water) to prepare a solution with an initial concentration of […] before use, and was 2-fold diluted with the buffer to obtain 6 diluted concentrations from 1.25 to 40 μmol/L. 4. Test method: HeLa cells (provided by the Cell Bank of Chinese Academy of Sciences) were seeded on a 24-well culture plate coated with 0.1 mg/ml polylysine, a serum-free medium DMEM (Gibco Company) was added at 500 μl/well, and the cells were cultured for one night. To each well, 0.5 μl a test compound at a different diluted concentration or 0.1 v/v % DMSO was added, then the pretreatment was performed for 15 min, and then 20 μg/ml alexa^568 transferrin (2 μl) (TF, SIGMA-ALDRICH Company) was added, and the incubation was carried out at 37° C. for 15 min. The resultant mixture was then washed with Live Cell Imaging Solution (LCIS, Invitrogen Company) and an acid at a low pH ([…] NaCl solution containing 0.5% acetic acid) for 30 s, respectively, followed by fixing with cold methanol, and was observed under fluorescence microscope.

Compound | CC50 ([1]; Table 1-3 (therapeutic effect)) [µM] | CC50 at 2 h [1] [µM] | CC50 [2] [µM] | pIC50 ([3]; EV71 (SZ-98 strain)) | pIC50 [4] | pIC50 [5] | pIC50 [6] | pIC50 [7] | CC50 [8] [µM] | CC50 at 2 h [8] [µM] | CC50 [1] [µM] | anti-EV71 activity (in words) [3] | pIC50 ([3]; Enterovirus, EV71) | endocytosis of transferrin at 20 μM (in words) [9] | inhibitory effect on endocytosis of transferrin (in words) [9] | inhibition at 20 µM [9] [%]
O=C1N=C(NS(=O)(=O)c2cccc3ccccc23)S/C1=C\c1ccc(Cl)cc1Cl [Compound 1, Naphthalene-1-sulfonic acid [5-(2,4-dichloro-benzylidene)-4-oxo-4,5-dihydro-thiazol-2-yl] amide] | 12.8 | 12.8 | 12.8 | < 5.13 | < 5.13 | 5.13 | < 5.13 | < 5.13 | 10.7 | 10.7 |  |  |  |  |  | 
COc1cc(/C=C2\SC(NS(=O)(=O)c3cccc4ccccc34)=NC2=O)ccc1O [Compound 2, Naphthalene-1-sulfonic acid [5-(3-methoxy-4-hydroxy-benzylidene)-4-oxo-4,5-dihydro-thiazol-2-yl] amide] | 22.2 | 22.2 | 22.2 | < 5.13 | < 5.13 | < 5.13 | < 5.13 | < 5.13 | 12.8 | 12.8 |  |  |  |  |  | 
O=C1N=C(NS(=O)(=O)c2cccc3ccccc23)S/C1=C\c1ccc(Cl)cc1 [Compound 4, Naphthalene-1-sulfonic acid [5-(4-chloro-benzylidene)-4-oxo-4,5-dihydro-thiazol-2-yl] amide] |  | 12.8 | 12.8 | 5.24 | < 5.61 | < 5.61 | < 5.13 | < 5.13 | 4.28 | 4.28 | 12.8 | better anti-EV71 activity | 5.24 |  |  | 
O=C1N=C(NS(=O)(=O)c2cccc3ccccc23)S/C1=C\c1cccc(O)c1 [Compound 6, Naphthalene-1-sulfonic acid [5-(3-hydroxy-benzylidene)-4-oxo-4,5-dihydro-thiazol-2-yl] amide] | 38.5 | 38.5 | 38.5 | 4.81 | < 4.65 | < 4.65 | < 4.65 | < 4.65 | 38.5 | 38.5 |  | better anti-EV71 activity |  |  |  | 
COc1ccc(/C=C2\SC(NS(=O)(=O)c3cccc4ccccc34)=NC2=O)cc1O [Compound 7, Naphthalene-1-sulfonic acid [5-(3-hydroxy-4-methoxy-benzylidene)-4-oxo-4,5-dihydro-thiazol-2-yl] amide] | 3.56 | 3.56 | 10.7 | < 6.09 | < 5.61 | < 5.61 | < 6.09 | < 5.61 | 7.41 | 7.41 |  |  |  |  |  | 
O=C1N=C(NS(=O)(=O)c2cccc3ccccc23)S/C1=C\c1ccc(O)c(Br)c1 [Compound 8, Naphthalene-1-sulfonic acid [5-(3-bromo-4-hydroxy-benzylidene)-4-oxo-4,5-dihydro-thiazol-2-yl] amide] | 66.7 | 66.7 | 9.54 | 4.65 | < 5.13 | < 5.13 | < 4.65 | < 5.61 | 12.8 | 12.8 |  | better anti-EV71 activity |  |  |  | 
COc1cccc(OC)c1/C=C1\SC(NS(=O)(=O)c2cccc3ccccc23)=NC1=O [Compound 9, Naphthalene-1-sulfonic acid [5-(2,6-dimethoxy-benzylidene)-4-oxo-4,5-dihydro-thiazol-2-yl] amide] | 12.8 | 12.8 | 38.5 | < 5.13 | < 4.65 | < 4.65 | < 5.13 | < 4.65 | 38.5 | 38.5 |  |  |  |  |  | 
O=C1N=C(NS(=O)(=O)c2cccc3ccccc23)S/C1=C\c1ccc(F)cc1Cl [Compound 10, Naphthalene-1-sulfonic acid [5-(2-chloro-4-fluoro-benzylidene)-4-oxo-4,5-dihydro-thiazol-2-yl] amide] | 15.4 | 15.4 | 12.8 | < 5.13 | < 5.13 | < 5.13 | 5.29 | < 5.13 | 10.7 | 10.7 |  |  |  | completely inhibited | dose-dependent | 100
O=C1N=C(NS(=O)(=O)c2cccc3ccccc23)S/C1=C\c1ccc(-c2ccccc2)cc1 [Compound 11, Naphthalene-1-sulfonic acid (5-biphenyl-4-yl-methylene-4-oxo-4,5-dihydro-thiazol-2-yl) amide] | 46.2 | 46.2 | 32 | < 4.65 | < 6.09 | < 6.09 | < 4.65 | < 5.13 | 3.56 | 3.56 |  |  |  |  |  | 
CC(=O)Nc1ccc(/C=C2\SC(NS(=O)(=O)c3cccc4ccccc34)=NC2=O)cc1 [Compound 12, Naphthalene-1-sulfonic acid [5-(4-acetylamino-benzylidene)-4-oxo-4,5-dihydro-thiazol-2-yl] amide] | 38.5 | 38.5 | 38.5 | < 4.65 | < 4.65 | < 4.65 | < 4.65 | < 4.65 | 32 | 32 |  |  |  |  |  | 
O=C1N=C(NS(=O)(=O)c2cccc3ccccc23)SC1Nc1ccccc1 (stereo not drawn) [Compound 13, Naphthalene-1-sulfonic acid (4-oxo-5-phenylamino-4,5-dihydro-thiazol-2-yl) amide] | 66.7 | 66.7 | 66.7 | < 4.65 | < 4.65 | < 4.65 | 5.13 | < 4.65 | 66.7 | 66.7 |  |  |  |  |  | 50
O=C1N=C(NS(=O)(=O)c2cccc3ccccc23)SC1C(c1ccccc1)c1ccc(Br)cc1 (stereo not drawn) [Compound 14, Naphthalene-1-sulfonic acid {5-[(4-bromo-phenyl)-phenyl-methyl]-4-oxo-4,5-dihydro-thiazol-2-yl} amide] | 38.5 | 38.5 | 32 | 4.81 | < 4.65 | 4.81 | 4.65 | 4.81 | 32 | 32 |  | better anti-EV71 activity |  | completely inhibited | dose-dependent | 100
